Columns and labels:
[1] = tested on: MDA-MB-231 breast cancer bone metastases; assay: Experimental breast cancer bone metastases in nude rats: histology / immunofluorescence of tumor vessels; assay type: in vivo, nude rats (RNU strain); conditions: after 4 weeks treatment (control rats 8.8 μm; p<0.01)
Protocol: Nude rats (RNU strain) are obtained from Harlan-Winkelmann GmbH (Borchen, Germany) at the age of six weeks and housed in a specific pathogen-free environment in a mini barrier system of the central animal facility. Animals are kept under controlled conditions (21±2° C. room temperature, 60% humidity, 12 h light-dark rhythm) and offered autoclaved food and water ad libitum. Sub-confluent MDAMB-231 cells are harvested using 0.05% Trypsin-EDTA (Gibco®; Invitrogen, Karlsruhe, Germany) counted on a Neubauer's chamber and resuspended in RPMI-1640 to a final concentration of 10^5 cells in 200 μl. Rats are anesthetized using a mixture of nitrous oxide (1 l/min), oxygen (0.5 l/min) and isoflurane (1.5 vol. %). Arterial branches of the right hind leg are dissected and 10^5 cells injected into the superficial epigastric artery as described previously.^28 Bone metastases established and are observed exclusively in the femur, tibia and fibula of the right hind leg. […]
At the end of the observation period lower limbs of each animal are amputated and muscular tissue removed. […] Mean positive area fractions of SMA and collagen IV (in percent) as well as mean vessel diameters (in μm) are determined from 4 representative animals of each group analyzing 10 fields of view chosen randomly from each rat using Analysis Software (cell^F; Olympus Soft Imaging Solutions, Münster, Germany). […]

[2] = tested on: 4T1 mouse breast tumour cells; assay: Study 003: 4T1 orthotopic model (lung and liver metastases); assay type: in vivo, female BALB/c mice
Protocol: 4T1 mouse breast tumour cells were orthotopically inoculated into the third mammary fat pad of female BALB/c mice. The mice were randomised into groups when the tumors reached a size of approximately 40 mm^3.
The mice in each group received treatment with either Vehicle Control (Placebo), EMD 121974 (75, 150 or 300 mg/kg as Composition according to Example 18) or Taxol® (8 mg/kg). The Vehicle Control and EMD 121974 were administered by subcutaneous injection, daily; Taxol® was administered by intravenous injection three times per week.
Body weight and tumour volume measurements were made for all mice three times per week. The lungs and liver were excised from all mice at termination. For lung metastasis assessment surface metastases of the lungs were counted and for liver metastasis assessment H&E-stained sections of liver were assessed for the presence and number of micro-metastases.

H1299 = assay: In vitro cell viability by MTS assay, H1299; assay type: cell-based, human; conditions: 5 μg/ml, 24 h
Protocol: (§1) Methods: Three non-small cell lung carcinoma lines (NSCLCs) (H460, A549 and H1299) and three head and neck squamous cell carcinoma lines (HNSCCs) (FaDu, SCC-15 and SCC-25) cell lines were used for in vitro experiments. Of these, H460 and FaDu were used for in vivo testing when grown as xenografts in nude mice. The effects of cilengitide (1-50 μg/ml, 24 h) on in vitro cell viability was determined by MTS assay and on cellular radiosensitivity by clonogenic cell survival assay after exposing the cells to graded single doses of γ-radiation with or without cilengitide (given 1 h before and continued for 23 h after irradiation). In vivo effect of cilengitide on radioresponse of xenografts was assessed by tumor growth delay. When tumor xenografts reached 7 mm in diameter cilengitide treatment (30 or 60 mg/d/5 or 10 days) was initiated followed by a single dose of 15 Gy local radiation (using ^137Cs γ-ray source), when the tumors reached 8 mm.

A549 = assay: Cellular radiosensitivity by clonogenic cell survival assay, A549; assay type: cell-based, human; conditions: combined with γ-radiation, given 1 h before and continued 23 h after irradiation
Protocol: as §1

[3] = tested on: HNSCC lines (FaDu, SCC-15 and SCC-25); assay: Cellular radiosensitivity by clonogenic cell survival assay, HNSCC lines; assay type: cell-based, human; conditions: combined with γ-radiation
Protocol: as §1

[4] = tested on: H460 (NSCLC) tumor xenografts; assay: Tumor growth delay of H460 xenografts with radiation; assay type: in vivo, nude mice
Protocol: as §1

[5] = tested on: BT474 human breast cancer cells; assay: Her2+ breast cancer model BT474, Cilengitide in combination with Herceptin; assay type: in vivo, Balbc nu/nu mice; conditions: 300 mg/kg Cilengitide s.c. daily
Excerpt: BT474 human breast cancer cells were subcutaneously injected into Balbc nu/nu mice. The mice were randomized into different treatment groups when the tumors reached a mean tumor volume of approximately 125 mm^3.

[6] = cited from earlier work

Structure (SMILES): CC(C)[C@H]1C(=O)N[C@@H](CCCN=C(N)N)C(=O)NCC(=O)N[C@@H](CC(=O)O)C(=O)N[C@H](Cc2ccccc2)C(=O)N1C [Cilengitide, cyclo-(Arg-Gly-Asp-DPhe-NMeVal)]
- mean vessel diameter in bone metastases [1]: 6.6 μm
- spontaneous liver metastasis formation ([2]; 75, 150 or 300 mg/kg daily s.c. as Composition according to Example 18, significant for all doses): inhibited spontaneous liver metastasis formation comparable to Taxol
- spontaneous lung metastasis formation ([2]; daily s.c. as Composition according to Example 18, significant for 300 mg/kg/day): spontaneous lung metastasis formation comparable to Taxol
- in vitro viability (H1299): 27.8±4.2%
- radiosensitivity enhancement factor (A549): 1.56
- effect on radiosensitivity of HNSCC lines [3]: only an additive effect
- enhancement factor of tumor radioresponse (tumor growth delay) ([4]; with single dose of 15 Gy local radiation): 1.7
- antitumor activity as a single agent (tumor growth delay) ([4]; without radiation): no antitumor activity
- tumor growth of Her2+ BT474 tumors under monotherapy [5]: did not inhibit the tumor growth
- MTD in humans [6]: no known MTD
